Values quoted from earlier work as cited in patent US20170172905A1, “AGENT FOR TEMPORARILY RESHAPING KERATIN-CONTAINING FIBERS COMPRISING PRESERVATIVE” (Henkel AG & Co. KGaA, priority 2015, published 2017).

- logP value: 5.25
SMILES: CCCCC(CC)CN1CN(CC(CC)CCCC)CC(C)(N)C1 (stereo not shown) [hexetidine, 5-amino-1,3-bis(2-ethylhexal)hexahydro-5-methylpyrimidine]
